This is an account of results in patent US6280768A, “Berberine alkaloids as a treatment for chronic protozoally induced diarrhea” (PRM Pharmaceuticals, Inc., priority 1997, dated 2001).

One series relates to cryptosporidia. The conditions noted are these: cited from earlier work.
In series [1] the test system is microsporidia. In words: Protoberberines in a hamster animal model of microsporidial chronic diarrhea (Example 5). The class given is in vivo. The conditions noted are these: 52 mg/kg/day oral; for condition of the hamsters / diarrhea: after 10 days; for presence of microsporidia in intestinal biopsy: following therapy. The method, then: Ten hamsters suffering from chronic diarrhea caused by microsporidia are randomized into two groups of 5 hamsters. One group receives the protoberberine palmatine and the second group receives the protoberberine dihydroberberine. The protoberberines are administered orally at a dose rate of 52 mg/kg/day for ten (10) days.

In series [2] the test system is microsporidia. In words: Protoberberines in a mouse animal model of microsporidial chronic diarrhea (Example 6). It is filed as in vivo. The following applies: 52 mg/kg/day oral; for condition of the mice / diarrhea: after 10 days; for presence of microsporidia in intestinal biopsy: following therapy. The protocol:
Ten mice suffering from chronic diarrhea caused by microsporidia are randomized into two groups of 5 mice. One group receives the protoberberine palmatine and the second group receives the protoberberine jatrorrhizine. The protoberberines are administered orally at a dose rate of 52 mg/kg/day for ten (10) days.

The test system of a further series is diarrhea. In words: Prophylactic use of berberines in HIV infected patients (Example 7). The class given is in vivo, human. The following applies: low dose of Example 2, two months, 25 patients. The method, then: Twenty five (25) HIV infected patients, 18 years of age or older, not presenting with chronic diarrhea, are selected. Blood specimens are evaluated to confirm that each patient is HIV seropositive.
Each of the twenty five (25) patients receives a treatment with berberine according to the low dose of Example 2 for a period of two months.

The conditions of series [3]: oral, high doses; cited from earlier work.

Take `C[C@@H](O)[C@@H]1NC(=O)[C@H](CCCCN)NC(=O)[C@@H](Cc2c[nH]c3ccccc23)NC(=O)[C@H](Cc2ccccc2)NC(=O)[C@@H](NC(=O)[C@H](N)Cc2ccccc2)CSSC[C@@H](C(=O)N[C@H](CO)[C@@H](C)O)NC1=O` [octreotide]: the “control of gastrointestinal secretion” value with cryptosporidia (AIDS patients) was “control the voluminous gastrointestinal secretion”. For the same compound, in the series on cryptosporidia (following cessation of treatment), the return of diarrhea result is listed as “diarrhea promptly returns”.

Regarding `COc1cc2c(cc1OC)-c1cc3ccc(OC)c(OC)c3c[n+]1CC2` [palmatine], in the series with microsporidia [1], the “condition of the hamsters” value is on record as “improved”, the diarrhea result is recorded as “none of the hamsters have diarrhea” and the “presence of microsporidia in intestinal biopsy” value (“presence of microsporidia” below) is recorded as “does not reveal the presence of microsporidia”. In addition, in the series on microsporidia [2], the “condition of the mice” value is “improved”, the diarrhea entry is listed as “none of the mice have diarrhea” and the “presence of microsporidia” value is “does not reveal the presence of microsporidia”.

Turning to `COc1ccc2c(c1OC)CN1CCc3cc4c(cc3C1=C2)OCO4` [dihydroberberine], in the series with microsporidia [1], the “condition of the hamsters” value is on record as “improved”, the diarrhea result is listed as “none of the hamsters have diarrhea” and the “presence of microsporidia” value is given as “does not reveal the presence of microsporidia”.

On to `COc1ccc2cc3[n+](cc2c1OC)CCc1cc2c(cc1-3)OCO2` [berberine, 5,6-Dihydro-9,10-dimethoxybenzo[g]-1,3-benzodioxolo[5,6-a]quinolizinium], for which the “tolerability / adverse reactions” value in the series on diarrhea is “all of the patients tolerate the treatment well with no or minimal adverse reactions”. The toxicity result in series [3] is on record as “nontoxic at high doses”.

Turning to `COc1cc2c(cc1O)CC[n+]1cc3c(OC)c(OC)ccc3cc1-2` [jatrorrhizine], in the series with microsporidia [2], the “condition of the mice” value is “improved”, the diarrhea result is on record as “none of the mice have diarrhea” and the “presence of microsporidia” value is on record as “does not reveal the presence of microsporidia”.
